# Measured values as given in patent US20090270435A1 (priority 2006, published 2009).
# Legend:
# ACC1 from rat liver = target: T1, ACC1 from rat liver (Rattus norvegicus, UniProt P11497); experiment: Direct inhibition of ACC1 activity (14C-bicarbonate incorporation); assay type: biochemical; details: ACC1 from rat liver
# T1 construct: The livers (for ACC1 preparation) or skeletal muscle tissue (for ACC2 preparation) are removed; from tissue; host or cells: liver of male CD rats (fasted, then fed a high sucrose diet)
# Summary of the method: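 ACC1 partially purified from livers of fasted/sucrose-refed male rats by PEG and ammonium sulfate fractionation, then preincubated 30 min at 37°C with 10 mM citrate and 1.0 mM MgCl2. Reaction ran 7 min at 37°C, stopped with HCl; acid-stable radioactivity counted by scintillation; HCl-first tubes served as blanks.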
# [1] = tested on: hepatic fatty acid synthesis; experiment: Measurement of fatty acid synthesis inhibition in experimental animals ([2-14C]acetate into saponifiable lipids in liver); assay type: in vivo, Sprague Dawley rats; details: Rattus norvegicus; for inhibition at 30 mg/kg: po, read-out: Percent Inhibition at 30 mg/kg
# From the text: The ACC inhibitory activity of compounds of this invention, and the salts of such compounds, can be confirmed in vivo by evaluation of their ability to inhibit hepatic fatty acid production and to stimulate whole body fatty acid oxidation using methods based on standard procedures. For example, since ACC catalyzes the first committed step in the biosynthesis of fatty acids, the in vivo activity of these compounds can be confirmed by measuring the ability of the compounds of this invention, and the salts of such compounds, to prevent the formation of radio labeled fatty acids from radio labeled acetate in the livers of treated mammals.
# [1] Measurement of fatty acid synthesis inhibition in experimental animals. Incorporation of [2-^14C]acetate into saponifyable lipids in the livers of mammals (e.g. CDI mice, C57BI/6J-ob/ob mice, Sprague Dawley rats (available from Charles River Boston, Mass. or Jackson Labs Bar Harbor, Me.)) can be measured essentially as previously described for assessment of hepatic sterol synthesis (Harwood et al, Biochem. Pharmacol, 40: 1281-1293, 1990; Harwood et al. Biochem. Pharmacol. 53: 839-864, 1997) with the following modifications to allow for assessment fatty acid synthesis. For example, Sprague Dawley rats are administered a 0.1 ml per 40 g body weight of an oral bolus of vehicle (e.g. water or 0.5% methylcellulose in water)±test compound. One to four hours after compound administration, animals receive an intraperitoneal injection of 0.5 ml of [2-^14C]acetate (64 μCi/ml; 57 mCi/mmol). One hour after radiolabel administration, animals are sacrificed by CO2 asphyxiation and two, 0.75 g liver pieces are removed and saponified at […]. for 120 minutes in 1.5 ml of 2.5 M NaOH. After saponification, 2.5 ml of absolute EtOH are added to each sample and the solutions are mixed and allowed to stand overnight. Petroleum ether, 4.8 ml, is then added to each sample and the mixtures are first shaken vigorously for 2 minutes then centrifuged at 1000×g in a bench-top Sorvall®9 for 5 minutes. The resultant petroleum ether layers, which contain the nonsaponifyable lipids (e.g. cholesterol, post-squalene cholesterol precursors and other non-saponifiable lipids), are removed and discarded. The remaining aqueous layer (containing fatty acid sodium salts) is acidified to pH<2 by addition of 0.6 ml of 12 M HCl and extracted two times with 4.8 ml of petroleum ether. The pooled organic fractions (containing protonated fatty acids) are transferred to liquid scintillation vials, dried under nitrogen, dissolved in 7 ml of Aqua sol liquid scintillation fluid, and assessed for radioactivity using a liquid scintillation counter. Inhibition of fatty acid synthesis by the test compound is expressed as the concentration required to reduce by 50% the dpm [2-^14C]acetate incorporated into saponifiable lipids during the 1 hour interval between radio labeled acetate injection and CO2 asphyxiation.
# Some compounds of the present were evaluated for inhibition of fatty acid synthesis as described above. As shown below, these compounds were all observed to inhibit the synthesis of fatty acids in vivo.
# [2] = target: T2, ACC2 from rat skeletal muscle (Rattus norvegicus, UniProt Q1HEC0); experiment: Direct inhibition of ACC2 activity (14C-bicarbonate incorporation); assay type: biochemical; details: ACC2 from rat skeletal muscle
# T2 construct: The livers (for ACC1 preparation) or skeletal muscle tissue (for ACC2 preparation) are removed; from tissue; host or cells: skeletal muscle of male CD rats (fasted, then fed a high sucrose diet)
# T2 sequence (Q1HEC0 17-2455): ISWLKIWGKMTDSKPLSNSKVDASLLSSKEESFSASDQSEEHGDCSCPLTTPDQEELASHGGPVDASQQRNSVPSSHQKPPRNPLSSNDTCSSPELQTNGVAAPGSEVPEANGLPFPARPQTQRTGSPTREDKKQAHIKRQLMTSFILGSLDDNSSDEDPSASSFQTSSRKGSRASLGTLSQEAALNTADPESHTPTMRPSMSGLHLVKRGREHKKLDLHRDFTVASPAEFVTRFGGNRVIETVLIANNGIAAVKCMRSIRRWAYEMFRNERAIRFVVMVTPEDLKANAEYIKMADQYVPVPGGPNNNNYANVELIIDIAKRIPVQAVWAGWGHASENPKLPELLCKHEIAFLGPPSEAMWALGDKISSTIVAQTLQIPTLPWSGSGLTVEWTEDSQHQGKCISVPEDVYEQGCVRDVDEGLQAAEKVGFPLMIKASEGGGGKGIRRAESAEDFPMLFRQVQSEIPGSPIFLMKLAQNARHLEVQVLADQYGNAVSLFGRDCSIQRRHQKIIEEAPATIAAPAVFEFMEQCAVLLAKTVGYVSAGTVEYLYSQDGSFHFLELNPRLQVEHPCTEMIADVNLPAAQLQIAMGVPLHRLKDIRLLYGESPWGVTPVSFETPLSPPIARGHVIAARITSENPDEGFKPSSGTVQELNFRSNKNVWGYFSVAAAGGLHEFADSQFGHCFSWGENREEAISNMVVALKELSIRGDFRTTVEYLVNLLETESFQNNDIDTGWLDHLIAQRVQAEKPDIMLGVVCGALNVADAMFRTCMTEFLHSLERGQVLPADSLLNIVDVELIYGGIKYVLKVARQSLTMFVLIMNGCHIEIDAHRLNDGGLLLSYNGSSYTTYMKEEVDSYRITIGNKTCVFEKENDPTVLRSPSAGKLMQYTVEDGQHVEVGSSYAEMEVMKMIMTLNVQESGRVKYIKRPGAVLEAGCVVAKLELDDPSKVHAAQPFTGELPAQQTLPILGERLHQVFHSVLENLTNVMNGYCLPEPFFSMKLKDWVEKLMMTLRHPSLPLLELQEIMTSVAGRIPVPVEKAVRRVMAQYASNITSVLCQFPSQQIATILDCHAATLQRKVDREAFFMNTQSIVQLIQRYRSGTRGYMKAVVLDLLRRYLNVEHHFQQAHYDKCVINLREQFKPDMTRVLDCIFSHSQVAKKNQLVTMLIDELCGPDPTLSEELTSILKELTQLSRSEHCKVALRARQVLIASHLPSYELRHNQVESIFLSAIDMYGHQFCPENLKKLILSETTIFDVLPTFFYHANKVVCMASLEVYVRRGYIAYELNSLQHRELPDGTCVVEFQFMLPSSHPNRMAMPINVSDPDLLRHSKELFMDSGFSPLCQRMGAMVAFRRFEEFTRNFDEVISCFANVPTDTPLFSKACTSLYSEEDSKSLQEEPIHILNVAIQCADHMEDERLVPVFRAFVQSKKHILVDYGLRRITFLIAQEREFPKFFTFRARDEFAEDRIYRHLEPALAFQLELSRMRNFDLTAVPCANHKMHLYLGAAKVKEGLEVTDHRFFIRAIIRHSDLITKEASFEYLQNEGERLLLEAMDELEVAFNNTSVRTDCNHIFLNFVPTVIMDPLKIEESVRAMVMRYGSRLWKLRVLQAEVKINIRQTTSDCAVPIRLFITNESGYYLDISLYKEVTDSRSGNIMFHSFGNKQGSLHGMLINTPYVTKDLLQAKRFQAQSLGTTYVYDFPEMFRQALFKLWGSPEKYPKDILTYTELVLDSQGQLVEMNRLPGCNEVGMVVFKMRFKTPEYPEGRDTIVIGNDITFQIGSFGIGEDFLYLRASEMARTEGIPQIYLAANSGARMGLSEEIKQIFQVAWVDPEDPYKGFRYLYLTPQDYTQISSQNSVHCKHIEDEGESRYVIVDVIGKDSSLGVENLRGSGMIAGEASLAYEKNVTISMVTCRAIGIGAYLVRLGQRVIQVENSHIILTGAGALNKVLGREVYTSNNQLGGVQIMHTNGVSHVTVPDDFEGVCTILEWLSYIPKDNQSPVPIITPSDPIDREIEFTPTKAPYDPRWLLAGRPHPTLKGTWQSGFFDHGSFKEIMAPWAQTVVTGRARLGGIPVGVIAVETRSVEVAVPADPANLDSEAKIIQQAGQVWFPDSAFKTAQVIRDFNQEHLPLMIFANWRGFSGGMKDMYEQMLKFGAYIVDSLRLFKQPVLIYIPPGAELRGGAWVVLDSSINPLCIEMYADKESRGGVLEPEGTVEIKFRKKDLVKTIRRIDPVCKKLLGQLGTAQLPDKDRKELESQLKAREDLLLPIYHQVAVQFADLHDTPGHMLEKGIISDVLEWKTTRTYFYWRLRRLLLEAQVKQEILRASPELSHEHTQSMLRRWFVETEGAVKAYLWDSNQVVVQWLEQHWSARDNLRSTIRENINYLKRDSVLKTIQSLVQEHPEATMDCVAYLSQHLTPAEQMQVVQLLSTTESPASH
# Description: For example direct inhibition of ACC1 and ACC2 activity, for compounds of Formula (1) were determined using preparations of ACC1 from rat liver and ACC2 from rat skeletal muscle.
# [1] Preparation of ACC1 and ACC2. ACC1 was obtained from rat liver and ACC2 was obtained from rat skeletal muscle based upon standard procedures such as those described by Thampy and Wakil (J. Biol. Chem. 260: 6318-6323; 1985) using the following method.
# Male CD rats weighing 150-200 g are fasted for 2 days and then fed a high sucrose diet (AIN-76A rodent diet; Cat # D10001, Research Diets Inc., New Brunswick, N.J.), for 3 days at which time they are sacrificed by CO2 asphyxiation. The livers (for ACC1 preparation) or skeletal muscle tissue (for ACC2 preparation) are removed, rinsed in ice-cold phosphate-buffered saline (PBS), and homogenized in 5 volumes of homogenization buffer (50 mM potassium phosphate, pH 7.5, 10 mM EDTA, 10 mM 2-mercaptoethanol, 2 mM benzamidine, 0.2 mM phenylmethylsulfonylfluoride (PMSF), 5 mg/L each leupeptin, aprotinin, and antitrypsin) in a Waring® blender for 1 minute at 4° C. All subsequent operations are carried out at 4° C. The homogenate is made 3% with respect to polyethylene glycol (PEG) by the addition of 50% PEG solution and centrifuged at 20,000×g for 15 minutes. The resulting supernatant is adjusted to 5% PEG with the addition of 50% PEG solution and stirred for 5 minutes. The pellet (contains ACC activity) is collected by centrifugation at 20,000×g for 20 minutes, rinsed with Ice-cold doubly distilled water to remove excess PEG and re-suspended in one-fourth the original homogenate volume with homogenization buffer. Ammonium sulfate (200 g/liter) is slowly added with stirring. After 45 minutes the enzyme is collected by centrifugation for 30 minutes at 20,000×g, re-suspended in 10 ml of 50 mM HEPES, pH7.5, 0.1 mM DTT, 1.0 mM EDTA, and 10% glycerol and desalted on a Sephadex™ G-25 column (2.5 cm-x 50 cm) (Pharmacia, Piscataway N.J. now GE Healthcare) […] equilibrated with the same buffer. The desalted enzyme preparation is stored in aliquots at −70° C. Immediately prior to use, frozen ACC1 or ACC2 aliquots are thawed, diluted to 500 μg/ml in buffer containing 50 mM HEPES, pH7.5, 1.0 mM MgCl2, 10 mM tripotassium citrate, 2.0 mM dithiothreitol (DTT), and 0.75 mg/ml fatty acid-free bovine serum albumin (BSA) and pre-incubated at 37° C. for 30 minutes.
# [2] Measurement of ACC inhibition. The procedures for measuring ACC1 inhibition and ACC2 inhibition are identical except for the source of the isozyme. For measurement of ACC activity and assessment of ACC inhibition, test compounds are dissolved in dimethylsulfoxide (DMSO) and 1 μL aliquots are placed in 0.5 ml polypropylene tubes. Control tubes contain 1 μL of DMSO alone. Tubes are incubated at 37° C. in a constant temperature water bath. […] The reaction is then initiated by the addition of 10 μL of preincubated ACC fraction prepared as described above. After 7 minutes the reaction is terminated by the addition of 50 μL of 6N HCl and a 150 μL aliquot of the reaction mixture is transferred to glass scintillation vials and evaporated to dryness at 90° C. for at least 1 hour. The dried vials are then cooled, 0.5 ml of water and 5.5 ml of Ready Safe liquid scintillation fluid (Beckman Coulter Inc., Fullerton, Calif.) are added, and the radioactivity is determined using a liquid scintillation counter. Tubes that received HCl before ACC served as blanks.
# [3] Specificity for ACC1 vs ACC2 inhibition. The specificity of a compound for Inhibiting ACC1 vs ACC2 can be determined by comparing the concentration of test compound required to inhibit 50% of the activity contained in an aliquot of ACC1 as compared with the concentration of the same compound required to inhibit 50% of the activity of an aliquot of ACC2.
IC50 (ACC1 from rat liver) [nM],IC50 [2] [nM],Structure (SMILES),inhibition at 30 mg/kg [1] [%],"inhibition at 10 mg/kg ([1]; inhibition of fatty acid synthesis in vivo, 10 mg/kg, oral bolus, read-out: Percent Inhibition at 10 mg/kg) [%]"
37.4,,"COc1ccc2c(c1F)C(=O)CC1(CCN(C(=O)c3cc(C)c4[nH]ncc4c3)CC1)O2 [Ex. A9, 5-fluoro-6-methoxy-1′-[(7-methyl-1H-indazol-5-yl)carbonyl]spiro[chromene-2,4′-piperidin]-4(3H)-one]",33.5,
23.5,36.4,"Cc1cc2c(cc1C)C(=O)CC1(CCN(C(=O)c3cc(C)c4[nH]ncc4c3)CC1)O2 [Ex. A1, 6,7-dimethyl-1′-[(7-methyl-1H-indazol-5-yl)carbonyl]spiro-[chromene-2,4′-piperidin]-4(3H)-one]",35.4,
55.1,,"COc1ccc2c(c1)C(=O)CC1(CCN(C(=O)c3cc(C)c4[nH]ncc4c3)CC1)O2 [Ex. A16, 6-methoxy-1′-[(7-methyl-1H-indazol-5-yl)carbonyl]spiro[chromene-2,4′-piperidin]-4(3H)-one]",83,68
